System: human anaplastic large-cell lymphoma (ALCL) tumor model
Test: Antitumor activity in vivo, ALCL tumors grafted subcutaneously in mice, oral daily dosing
Conditions: mice with subcutaneous ALCL tumors, daily schedule, animals weighed
Experimental: Pharmacological Activity In Vivo
The compounds were administered orally at various doses on a daily schedule to mice with ALCL tumors grafted subcutaneously. Tumor size was measured regularly during the study and the animals were weighed several times per week in order to identify any adverse effects. A compound is declared active if it induces inhibition of ALCL tumor growth by at least 58%.

Row | SMILES | adverse effects / tolerance in vivo
1 | CN1CCN(c2ccc(C(=O)Nc3n[nH]c4ncc(Sc5cc(F)cc(F)c5)cc34)c(NC3CCOCC3)c2)CC1 [Example 30, N-(5-(3,5-difluorophenylthio)-1-H-pyrazolo[3,4-b]pyridine-3-yl)-4-(4-methylpiperazine-1-yl)-2-(tetrahydro-2H-pyran-4-ylamino)benzamide] | no adverse effects
2 | CN1CCN(c2ccc(C(=O)Nc3n[nH]c4ncc(Cc5cc(F)cc(F)c5)cc34)c(NC3CCOCC3)c2)CC1 [Example 30-9, N-(5-(3,5-difluorobenzyl)-1H-pyrazolo[3,4-b]pyridin-3-yl)-4-(4-methylpiperazin-1-yl)-2-(tetrahydro-2H-pyran-4-ylamino)benzamide] | no adverse effects
